Data published in ChEMBL document CHEMBL1201862, “PubChem BioAssay data set” (2004).
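Dose response: 5 concentrations. Exposure: 48 h. Format: 96-well plates. Endpoint: linear interpolation; highest concentration if not reached. Abbreviation: GI50, concentration required for 50% inhibition of growth.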 Active and inactive are the calls of the source. No stated cut-off is given here; in the data, active = GI50 up to about 1.1 µM and inactive = higher.

Experiments:
Assay in all cases: NCI-60 cell line screen, 48 h
[1] = system: COLO 205
[2] = system: HCC 2998
[3] = system: HCT-15
[4] = system: HOP-62
[5] = system: HOP-92
[6] = system: IGROV-1
[7] = system: LOX IMVI
[8] = system: MOLT-4
[9] = system: NCI-H226
[10] = system: NCI-H522
[11] = system: OVCAR-8
[12] = system: SF-268
[13] = system: SF-295
[14] = system: SK-MEL-2
[15] = system: SK-MEL-5
[16] = system: SK-OV-3
[17] = system: SNB-19
[18] = system: U-251
[19] = system: ACHN
[20] = system: M14

Row | Structure (SMILES) | GI50 [1] | GI50 [2] | GI50 [3] [µM] | GI50 [4] | GI50 [5] | GI50 [6] | GI50 [7] | GI50 [8] | GI50 [9] | GI50 [10] | GI50 [11] | GI50 [12] | GI50 [13] | GI50 [14] | GI50 [15] | GI50 [16] | GI50 [17] | GI50 [18] | GI50 [19] | GI50 [20]
1 | S=P1(N2CCCCC2)Oc2ccc3ccccc3c2-c2c(ccc3ccccc23)O1 | > 100 µM (inactive) | > 100 µM (inactive) | 63.7 | > 100 µM (inactive) | 92.9 µM (inactive) | > 100 µM (inactive) | 60.4 µM (inactive) | > 100 µM (inactive) | > 54.2 µM (inactive) | 37.8 µM (inactive) | 64.4 µM (inactive) | > 82.2 µM (inactive) | 53.7 µM (inactive) | 31.6 µM (inactive) | > 71.4 µM (inactive) | > 92.5 µM (inactive) | > 100 µM (inactive) | > 65.2 µM (inactive) | – | –
2 | O=c1c2ccccc2nc(-c2ccc(Br)cc2)n1NC1OC(CO)C(O)C(O)C1O (stereo not drawn) | 59.8 µM (inactive) | 82.4 µM (inactive) | > 100 | > 100 µM (inactive) | > 100 µM (inactive) | > 100 µM (inactive) | – | 31.6 µM (inactive) | > 100 µM (inactive) | 81.7 µM (inactive) | 91.4 µM (inactive) | 69.5 µM (inactive) | > 100 µM (inactive) | > 100 µM (inactive) | 75.9 µM (inactive) | > 100 µM (inactive) | > 100 µM (inactive) | > 100 µM (inactive) | > 100 µM (inactive) | > 100 µM (inactive)
3 | c1ccc2c(c1)nnn2CNc1ccc(N2CCOCC2)cc1 | > 100 µM (inactive) | > 100 µM (inactive) | > 100 | > 100 µM (inactive) | > 100 µM (inactive) | > 100 µM (inactive) | > 100 µM (inactive) | > 100 µM (inactive) | > 100 µM (inactive) | > 100 µM (inactive) | > 100 µM (inactive) | > 100 µM (inactive) | > 100 µM (inactive) | > 100 µM (inactive) | – | > 100 µM (inactive) | > 100 µM (inactive) | > 100 µM (inactive) | 67.3 µM (inactive) | > 100 µM (inactive)
4 | CCCCc1c2cnccc2c(CCCC)c2c1[nH]c1ccccc12 | 10.3 µM (inactive) | 23.9 µM (inactive) | 6.84 | 3.85 µM (inactive) | 12.8 µM (inactive) | 12.4 µM (inactive) | 13.7 µM (inactive) | 2.84 µM (inactive) | 15.7 µM (inactive) | 12.4 µM (inactive) | 12.9 µM (inactive) | 14.9 µM (inactive) | 7.19 µM (inactive) | 12.6 µM (inactive) | – | 27.4 µM (inactive) | 7.19 µM (inactive) | 12.8 µM (inactive) | 10 µM (inactive) | 15.7 µM (inactive)
5 | C(=C/c1nc2ccccc2o1)/c1ccc2c(c1)OCO2 | 40.7 µM (inactive) | 6.32 µM (inactive) | 8.18 | 16.2 µM (inactive) | 13.2 µM (inactive) | 16.1 µM (inactive) | 6.59 µM (inactive) | 45.7 µM (inactive) | 18 µM (inactive) | 7.74 µM (inactive) | 29.7 µM (inactive) | 19.8 µM (inactive) | 8.04 µM (inactive) | 8.34 µM (inactive) | 8.41 µM (inactive) | 27.2 µM (inactive) | 16.1 µM (inactive) | 17.5 µM (inactive) | – | –
6 | Cc1nc2ccc(S(=O)(=O)Nc3nccs3)cc2c(=O)n1NS(=O)(=O)c1nccs1 | > 100 µM (inactive) | > 100 µM (inactive) | > 100 | > 100 µM (inactive) | > 100 µM (inactive) | > 100 µM (inactive) | – | 28.5 µM (inactive) | > 100 µM (inactive) | 60.8 µM (inactive) | > 100 µM (inactive) | > 100 µM (inactive) | 58.7 µM (inactive) | > 100 µM (inactive) | 88.7 µM (inactive) | > 100 µM (inactive) | > 100 µM (inactive) | > 100 µM (inactive) | 32 µM (inactive) | > 100 µM (inactive)
7 | C#CCN1C(=O)CN2C(Cl)(Cl)C2(c2ccccc2)c2cc(Cl)ccc21 (stereo not drawn) | 54.5 µM (inactive) | 31.2 µM (inactive) | 40.6 | 50 µM (inactive) | 61.8 µM (inactive) | – | 88.1 µM (inactive) | 25.1 µM (inactive) | 39.7 µM (inactive) | 35.3 µM (inactive) | > 100 µM (inactive) | 82 µM (inactive) | 65.8 µM (inactive) | 94.4 µM (inactive) | 51.3 µM (inactive) | – | – | > 10 µM (inactive) | 85.9 µM (inactive) | 49.1 µM (inactive)
8 | COc1ccc(N(C)C(=O)N(C)c2ccc([N+](=O)[O-])cc2)cc1 | – | 33 µM (inactive) | 30.1 | 39.4 µM (inactive) | 25.5 µM (inactive) | 43.2 µM (inactive) | 33.1 µM (inactive) | > 100 µM (inactive) | 23 µM (inactive) | 23.8 µM (inactive) | 71 µM (inactive) | 82 µM (inactive) | – | 14.5 µM (inactive) | 38.8 µM (inactive) | 17.7 µM (inactive) | > 100 µM (inactive) | 30.4 µM (inactive) | > 100 µM (inactive) | 34 µM (inactive)
9 | CSC(=N)N1N=C2/C(=C/c3ccccc3)CCC[C@H]2[C@H]1c1ccccc1 | 1.55 µM (inactive) | 3.27 µM (inactive) | 6.52 | 6.65 µM (inactive) | 4.28 µM (inactive) | 2.12 µM (inactive) | 4.19 µM (inactive) | 2.69 µM (inactive) | 2.64 µM (inactive) | 4.23 µM (inactive) | 10.8 µM (inactive) | 15.2 µM (inactive) | 4.69 µM (inactive) | 4.2 µM (inactive) | – | 3.68 µM (inactive) | 6.47 µM (inactive) | 12 µM (inactive) | 3.36 µM (inactive) | 3.67 µM (inactive)
10 | COc1cc(C)cc(OC)c1/C=C/C(=O)O | – | > 100 µM (inactive) | > 100 | > 100 µM (inactive) | > 100 µM (inactive) | > 100 µM (inactive) | > 100 µM (inactive) | > 100 µM (inactive) | > 100 µM (inactive) | > 100 µM (inactive) | > 100 µM (inactive) | > 100 µM (inactive) | > 100 µM (inactive) | > 100 µM (inactive) | > 100 µM (inactive) | – | > 100 µM (inactive) | > 100 µM (inactive) | > 100 µM (inactive) | > 100 µM (inactive)
11 | CCCCCCc1cc2cc(C(=O)Nc3nc(C45CC6CC(CC(C6)C4)C5)cs3)c(=O)oc2cc1O | 16.7 µM (inactive) | 8.15 µM (inactive) | 3.85 | 18.1 µM (inactive) | 4.93 µM (inactive) | 10.4 µM (inactive) | 11.2 µM (inactive) | 15.1 µM (inactive) | 19.1 µM (inactive) | 3.45 µM (inactive) | 7.11 µM (inactive) | 9.57 µM (inactive) | 4.06 µM (inactive) | 12.3 µM (inactive) | 11.9 µM (inactive) | 20.3 µM (inactive) | 12.3 µM (inactive) | 11.6 µM (inactive) | 4.43 µM (inactive) | –
12 | Cc1ccc(N2Cc3c(ccc4ccccc34)OP2(=O)Oc2ccc(Cl)c(C)c2)cc1 (stereo not drawn) | > 100 µM (inactive) | > 100 µM (inactive) | 13.8 | > 100 µM (inactive) | 50 µM (inactive) | > 100 µM (inactive) | > 100 µM (inactive) | 14.2 µM (inactive) | > 100 µM (inactive) | 39.9 µM (inactive) | > 100 µM (inactive) | > 100 µM (inactive) | > 51.2 µM (inactive) | > 100 µM (inactive) | > 100 µM (inactive) | > 100 µM (inactive) | > 100 µM (inactive) | > 100 µM (inactive) | – | –
13 | CCC1=C(C(C)=O)[C@@H]2CCCCC(C(=O)OC)[C@@H]2C1=O (stereo partly drawn) | > 100 µM (inactive) | > 100 µM (inactive) | > 100 | > 100 µM (inactive) | > 100 µM (inactive) | > 100 µM (inactive) | – | > 100 µM (inactive) | > 100 µM (inactive) | 88.1 µM (inactive) | > 100 µM (inactive) | > 100 µM (inactive) | > 100 µM (inactive) | > 100 µM (inactive) | > 100 µM (inactive) | > 100 µM (inactive) | > 100 µM (inactive) | > 100 µM (inactive) | > 100 µM (inactive) | > 100 µM (inactive)
14 | C=C1C(=O)O[C@@H]2C[C@@]3(C)[C@H](O)CCC(=C)[C@@H]3C[C@H]12 [ASPERILIN] | 2.72 µM (inactive) | 7.05 µM (inactive) | 11.3 | 17.1 µM (inactive) | 5.13 µM (inactive) | 20.5 µM (inactive) | 5.27 µM (inactive) | – | 4.29 µM (inactive) | 4.16 µM (inactive) | 7.24 µM (inactive) | 15.6 µM (inactive) | 14.1 µM (inactive) | 11.6 µM (inactive) | 4.26 µM (inactive) | 22.3 µM (inactive) | 18.7 µM (inactive) | 13.4 µM (inactive) | 14.4 µM (inactive) | 3.31 µM (inactive)
15 | Oc1cc(O)c2c(c1)O[C@H](c1ccc(O)c(O)c1)[C@@H](O)C2 [CIANIDANOL] | > 100 µM (inactive) | > 100 µM (inactive) | > 100 | > 100 µM (inactive) | > 100 µM (inactive) | > 100 µM (inactive) | > 100 µM (inactive) | > 100 µM (inactive) | > 100 µM (inactive) | > 100 µM (inactive) | > 100 µM (inactive) | > 100 µM (inactive) | > 100 µM (inactive) | > 100 µM (inactive) | > 100 µM (inactive) | – | > 100 µM (inactive) | > 100 µM (inactive) | > 100 µM (inactive) | > 100 µM (inactive)
